Laboratory results as given in PubChem BioAssay (NCI).
Several values for one entry are separate records, joined by “and”; a condition that tells them apart may be missing. Equal entries are not always repeated.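 Cultured in 96-well plates, cells were exposed to test compound for 48 hours across five concentrations. Abbreviation: GI50, concentration required for 50% inhibition of growth. The concentration for full growth arrest is given as TGI.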

Key:
Test in all cases: NCI tumour cell line growth inhibition, 48 h
[1] = tested on: SF-268 CNS
[2] = tested on: IGROV1 ovarian
[3] = tested on: NCI-H23 lung
[4] = tested on: OVCAR-5 ovarian
[5] = tested on: SF-295 CNS
[6] = tested on: OVCAR-3 ovarian
[7] = tested on: NCI-H522 lung
[8] = tested on: LOX IMVI melanoma
[9] = tested on: SK-MEL-2 melanoma
[10] = tested on: T-47D breast

Structure (SMILES)	TGI [1] [µM]	TGI [2] [µM]	TGI [3] [µM]	TGI [4] [µM]	TGI [5] [µM]	TGI [6] [µM]	TGI [7] [µM]	TGI [8] [µM]	TGI [9] [µM]	TGI [10]	GI50 [1] [µM]	GI50 [8] [µM]	GI50 [2] [µM]	GI50 [3] [µM]	GI50 [4] [µM]	GI50 [5] [µM]	GI50 [6] [µM]	GI50 [7] [µM]	GI50 [9] [µM]	GI50 [10]
O=C1CN(c2cccc(Cl)c2)C(=O)CN1CCN1CC(=O)N(c2cccc(Cl)c2)CC1=O	> 100	> 100	71.1	> 100	> 100	> 100	> 100	–	–	–	–	–	–	–	–	–	–	–	–	–
CCOC(=O)C1=C(C(=O)OCC)C2c3ccccc3C=CN2C(C(=O)OCC)=C(SC)S1 (stereo not drawn)	> 100	> 100	> 100	> 100	> 100	> 100	> 100	> 100	> 100	–	–	–	–	–	–	–	–	–	–	–
O=S(=O)(N/N=C/c1cccc(/C=N/NS(=O)(=O)c2ccccc2)c1)c1ccccc1	> 100	> 100	> 100	> 100	> 100	> 100	–	> 100	> 100	–	–	–	–	–	–	–	–	–	–	–
CCCCN(CCCC)C(=O)C(=O)C(C(=O)c1ccc(OC)cc1)c1ccc(OC)cc1 (stereo not drawn)	> 100	> 100	> 100	> 100	> 100	> 100	–	> 100	> 100	–	–	–	–	–	–	–	–	–	–	–
COc1ccc(OC)c(N2CC(N)C2=O)c1 (stereo not drawn)	> 100	> 100	> 100	–	> 100	> 100	> 100	> 100	> 100	–	–	–	–	–	–	–	–	–	–	–
COc1cc(C2CC(C)(O)Oc3cc4c(cc32)OCO4)cc(OC)c1OC (stereo not drawn)	> 100	> 100	> 100	> 100	–	0.679	0.661	> 100	–	> 100 µM	–	–	–	–	–	–	–	–	–	–
Cc1ccc(Oc2ccc(C)cc2N)cc1	> 100	> 100	> 100	> 100	> 100	> 100	–	> 100	> 100	–	–	–	–	–	–	–	–	–	–	–
CC(=O)NNc1nc(C)c(C(=O)/C=C/c2ccc(NC(C)=O)cc2)s1	> 100	> 100	> 100	> 100	> 100	> 100	> 100	> 100	> 100	–	–	–	–	–	–	–	–	–	–	–
CC(=O)O/N=C(/C)c1ccccc1O	> 100	> 100	> 100	> 100	> 100	> 100	> 100	> 100	> 100	–	–	–	–	–	–	–	–	–	–	–
O=C(Nc1ccccc1-c1nn(C(=S)Nc2ccccc2)c(=S)n(C(=S)Nc2ccccc2)c1=O)C(F)(F)F	> 100	> 100	> 31.6	> 100	> 100	> 72.5	58.5	> 66.1	> 66.7	–	–	–	–	–	–	–	–	–	–	–
Nc1cc(NN=C(c2ccc(O)cc2)c2ccc(O)cc2)c([N+](=O)[O-])cc1[N+](=O)[O-]	3.45	5.38	6.07	8.44	2.91	4.14	6.51	3.1	–	–	1.73	1.65	2.28	2.31	2.85	1.4	1.81	2.46	–	–
COC(=O)C(CCCN1C(=O)c2ccccc2C1=O)C(=O)OC	> 100	> 100	> 100	> 100	> 100	> 100	> 100	> 100	> 100	–	–	–	–	–	–	–	–	–	–	–
CC(C)(C)c1cc2c(O)c3cccc4c(=O)c5cccc6c5-c(c34)c2c(c1)c6=O	> 100	> 100	> 100	> 100	> 100	> 100	> 100	> 100	> 100	–	–	–	–	–	–	–	–	–	–	–
Cc1cc(I)cc(CN(CCCN(C)C)C(C)C)c1O	32.9	31.7	> 100	53.5	–	34.8	31.4	28.6	35.7	39.8 µM	17.1	15	15.9	31.4	19.7	–	18.8	16	18.2	15.2 µM
Cc1ccc(/C=C/C(=O)CCN(C)C)cc1	47.5	37.1	79	> 100	> 100	39.4	–	31.6	–	–	–	–	–	–	–	–	–	–	–	–
Oc1[nH]c2ccccc2c1N=Nc1nc(-c2ccc(Br)cc2)cs1	46.8	23.1	> 100	> 100	67.7	67.7	> 100	33.1	> 100	–	–	–	–	–	–	–	–	–	–	–
C/C(=N/Nc1ccc([N+](=O)[O-])cc1[N+](=O)[O-])C(CC(C(=O)NCc1ccccc1)/C(C)=N\Nc1ccc([N+](=O)[O-])cc1[N+](=O)[O-])C(=O)NCc1ccccc1 (stereo not drawn)	16.5	31	28.7	56.6	18.2	24.5	–	–	23.9	–	–	–	–	–	–	–	–	–	–	–
Cc1cccc(C)c1NC(=O)CCCC(=O)C1/C(=N/NC(=O)CC#N)CCC/C1=N\NC(=O)CC#N (stereo not drawn)	> 100	> 100	> 100	> 100	> 100	> 100	> 100	–	> 100	–	–	–	–	–	–	–	–	–	–	–
CCOP(=O)(OCC)C(F)(F)c1ccc(CC(NC(=O)OC(C)(C)C)C(=O)O)cc1 (stereo not drawn)	> 10	> 10	> 10	> 10	> 10	> 10	–	> 10	–	> 10 µM	–	–	–	–	–	–	–	–	–	–
NC(=O)C(=Cn1c(=S)[nH]c2ccc([N+](=O)[O-])cc21)C(N)=O	> 100	> 100	> 100	> 100	> 100	> 100	–	> 100	> 100	> 100 µM	–	–	–	–	–	–	–	–	–	–
COc1ccc(C)cc1-c1cc(Sc2ccccc2)c(-c2cc(C)ccc2OC)o1	> 31.6	> 31.6	> 31.6	> 100	> 100	> 31.6	> 31.6	> 100	–	–	–	–	–	–	–	–	–	–	–	–
CC(C)=CCC(O)C1=CC(=O)c2c(O)ccc(O)c2C1=O (stereo not drawn)	6.09	3.31	2.66	3.89	9.3	2.55	0.694	2.63	3.83	–	–	–	–	–	–	–	–	–	–	–

Structure (SMILES)	TGI [1] [µM]	TGI [2] [µM]	TGI [3] [µM]	TGI [4] [µM]	TGI [5] [µM]	TGI [6] [µM]	TGI [7] [µM]	TGI [8] [µM]	TGI [9] [µM]	TGI [10]	GI50 [1] [µM]	GI50 [8] [µM]	GI50 [2] [µM]	GI50 [3] [µM]	GI50 [4] [µM]	GI50 [5] [µM]	GI50 [6] [µM]	GI50 [7] [µM]	GI50 [9] [µM]	GI50 [10]
C/C(=C\CBr)CCC(Br)C(C)(C)Br (stereo not drawn)	> 100	> 100	> 100	> 100	> 100	> 100	> 100	–	> 100	> 100 µM	–	–	–	–	–	–	–	–	–	–
COc1nc(NC2OC(COC(C)=O)C(OC(C)=O)C(OC(C)=O)C2OC(C)=O)c2c(OC(C)=O)cc(=O)oc2n1 (stereo not drawn)	–	> 100	> 100	> 100	> 100	> 100	–	> 100	> 100	–	–	–	–	–	–	–	–	–	–	–
CCc1c(OC(C)=O)c2c(NC3OCC(OC(C)=O)C(OC(C)=O)C3OC(C)=O)nc(SC)nc2oc1=O (stereo not drawn)	–	> 100	> 100	> 100	> 100	> 100	–	> 100	> 100	–	–	–	–	–	–	–	–	–	–	–
C/C(CCn1[nH]c(=O)ccc1=O)=N\NC(=O)C(=O)NN	> 100	> 100	> 100	> 100	> 100	> 100	> 100	> 100	> 100	–	–	–	–	–	–	–	–	–	–	–
Cc1ccc(/C=C/C(=O)c2cccc3ccccc23)cc1	33.1	–	–	27.5	31.7	31.7	34.2	–	32.6	–	–	–	–	–	–	–	–	–	–	–
O=C1C=CC(=O)c2nc3c(cc21)CCC3	37.3	34	64.6	> 100	> 100	32	25.4	29.9	–	–	–	–	–	–	–	–	–	–	–	–
O=[N+]([O-])c1ccc(Cl)cc1N/N=C/c1ccnc2ccccc12	> 100	> 100	> 100	–	> 100	> 100	> 100	–	–	> 100 µM	–	–	–	–	–	–	–	–	–	–
CCCCCCCCCCn1cc[n+](C)c1	18.3	10.1	28	> 100	8.43	8.59	10.4	13.2	–	> 21.7 µM	3.77	1.79	2.07	0.648	2.93	1.39	1.94	1.86	–	1.61 µM
CC(=O)OCCOCNC(=S)N/N=C(\C)c1cnccn1	> 100	> 100	> 100	40.5	> 100	> 100	97	> 100	> 100	–	–	–	–	–	–	–	–	–	–	–
COC(=O)CC(c1ccccc1)C1(c2ccccc2)SCCS1 (stereo not drawn)	> 290	> 290	> 290	> 290	> 290	> 290	> 290	> 290	> 290	–	–	–	–	–	–	–	–	–	–	–
O=C1CCC2(c3ccc(Cl)cc3)Nc3ccncc3N12 (stereo not drawn)	> 10	> 10	> 10	> 10	> 10	> 10	> 10	> 10	> 10	–	–	–	–	–	–	–	–	–	–	–
O=C(Oc1ccc(Cl)cc1)c1ccccc1Nc1ccnc(C(F)(F)F)c1	17.4	> 100	8.55	84.4	> 100	26.4	52.2	–	> 100	–	4.32	–	15.3	2.82	25.6	62.8	11.6	4.22	20.2	–
O=S(=O)(c1ccccc1)c1cccc2c1NCCC2	> 100	> 100	–	> 100	> 100	> 100	–	> 100	> 10	–	–	–	–	–	–	–	–	–	–	–
CC(C)(C)c1cc2ccc(C(N)=O)cc2c(=O)[nH]1	> 100	> 100	> 100	> 100	> 100	> 100	> 100	> 100	> 100	–	–	–	–	–	–	–	–	–	–	–
COc1cc(-c2ccc3cc(OC)c(OC)c(OC)c3c2)cc(OC)c1OC	> 100	> 100	> 100	> 100	–	> 100	> 100	> 100	> 100	–	24	> 100	40.4	> 100	> 100	–	> 100	9.54	16.6	–
COc1ccc(-c2cn[nH]c2-c2cc(OC)c(OC)c(OC)c2)cc1	31.5	19.9	30.2	36.9	0.0379	0.0694	0.0385	20.7	21.5	–	0.0795	0.123	0.0363	0.044	0.0375	–	0.0228	0.0101	0.0317	–
CN(C)CCn1c2c3ccccc3ccc2c2oc(=O)c3ccccc3c21	7.86	55.5	18.9	90.4	20.8	16.9	27.6	27.7	35	–	–	–	–	–	–	–	–	–	–	–
NC(=O)c1ccccc1NC(=O)C(=O)C(C(=O)c1ccc(Cl)c(Cl)c1)C1OC(=O)c2ccccc21 (stereo not drawn)	> 100	> 100	> 100	> 100	–	> 100	–	–	–	–	–	–	–	–	–	–	–	–	–	–
Cc1cc2c(C)[nH]nc2c(C(=O)O)c1C	–	> 100	> 100	–	> 100	> 100	–	–	> 100	–	–	–	–	–	–	–	–	–	–	–
CCCCCCCCCCCCCCCC[N+](C)(C)Cc1ccccc1	–	0.533	–	–	3.29	2.53	–	–	–	5.62 µM and 6.1 µM	–	–	0.209	–	–	1.55	1.21	–	–	1.31 µM and 1.48 µM
COc1ccc2nc(NC(=O)CSc3nnc4n3S(=O)(=O)c3ccccc3N4c3ccccc3)sc2c1	> 100	55.1	> 100	> 100	> 100	> 100	> 100	> 100	–	> 100 µM	> 100	> 100	5.47	> 100	> 100	> 100	> 100	30.4	–	> 100 µM
